Measurements taken from patent US20240156767A1, “SCREENING METHOD FOR GLP-1 SECRETION REGULATION AGENT, GLP-1 SECRETION REGULATION AGENT, COMPOSITION FOR PREVENTING OR AMELIORATING DIABETES, OBESITY, POSTPRANDIAL HYPERGLYCEMIA, NEURODEGENERATIVE DISEASE, HYPOGLYCEMIA, ADIPOSITY, OR NESIDIOBLASTOSIS, METHOD FOR PROMOTING SECRETION OF GLP-1 IN …” (The Nisshin OilliO Group, Ltd., priority 2021, published 2024).

Columns and labels:
STC-1 cells = assay: Cell culture test: GLP-1 secretion from enteroendocrine STC-1 cells (ELISA); type: cell-based; conditions: for GLP-1 CONCENTRATION: 30 minutes after sample, mean±standard error; for Effect on GLP-1 secretion from STC-1 cells (in words): 0.01-1.0 mM
Protocol: By carrying out a cell culture test (in vitro test) by the following method, and administering various medium chain fatty acids (capric acid or lauric acid, both are a free form) to enteroendocrine cells (STC-1 cells), an effect of each medium chain fatty acid on GLP-1 secretion was examined. The above medium chain fatty acids correspond to GPR84 agonists. To the same dimethyl sulfoxide (1 ml) as in the (1-1) above, 172 mg of capric acid (trade name “Decanoic Acid <Capric Acid>”, manufactured by New Check Prep) was added to obtain 1000 mM of capric acid samples. A 1000 mM capric acid sample (0.1 ml) was added to dimethylsulfoxide (0.9 ml) to obtain a 100 mM capric acid sample. A 100 mM capric acid sample (0.1 ml) was added to dimethylsulfoxide (0.9 ml) to obtain a 10 mM capric acid sample. Note here that when capric acid was added to dimethylsulfoxide, a mixture was mixed while heating to prepare a sample having a uniform capric acid concentration. To the same dimethylsulfoxide (1 ml) as in the (1-1) above, 200 mg of lauric acid (trade name “Dodecanoic Acid <Lauric Acid>”, manufactured by New Check Prep) was added to obtain 1000 mM of lauric acid sample. A 1000 mM lauric acid sample (0.1 ml) was added to dimethylsulfoxide (0.9 ml) to obtain a 100 mM lauric acid sample. A 100 mM lauric acid sample (0.1 ml) was added to dimethylsulfoxide (0.9 ml) to obtain a 10 mM lauric acid sample. Note here that when lauric acid was added to dimethyl sulfoxide, the mixture was mixed while heating to prepare a sample having a uniform lauric acid concentration. STC-1 cells (trade name “STC-1”, manufactured by American Type Culture Collection) were cultured in a medium at 37° C. in 5% CO2 for 48 hours to obtain STC-1 cells for testing. Note here that as the medium, a DMEM medium (trade name “Dulbecco's Modified Eagle Medium (High Glucose)”, manufactured by Sigma-Aldrich) including 15% horse serum (trade name “Horse Serum, New Zealand origin”, manufactured by Gibco) and 5% fetal bovine serum (trade name “Fetal Bovine Serum (FBS) Standard, Origin South America”, manufactured by Cosmo Bio) was used. The culture medium for STC-1 cells was replaced with a serum-free medium (300 μl/well), starvation was carried out for 30 minutes, then the serum-free medium was replaced with a new serum-free medium (300 μl/well), and 0.3 μl each of any one of samples was added to each well. Thirty minutes after administration of the sample, the medium was collected and mixed in a 1.5 ml tube in which 3 μL of DPP4 inhibitor (trade name “DPP IV Inhibitor”, manufactured by Sigma-Aldrich) had been placed in advance. Then, each tube was centrifuged at 4° C. at 1,000×g for 5 minutes, and the supernatant was collected in a new 1.5 ml tube. GLP-1 concentration (nM) in the collected supernatant was measured. Note here that the GLP-1 concentration was measured by ELISA method using a commercially available kit (trade name “Glucagon Like Peptide-1 (Active) ELISA”, manufactured by Sigma-Aldrich). In the data of FIG. 1 and Table 1, the measured values of GLP-1 concentration are expressed as “mean±standard error”. Dunnet's test was used to test significant differences between trials, and significant differences were determined to exist when the risk rate was less than 5% (*p<0.05). Also, the sample concentrations in FIG. 1 and Table 1 indicate the concentrations in the medium in the cell culture test.

GPR84 knockout mice = assay: Administration test: plasma GLP-1 concentration in GPR84 knockout mice (ELISA); type: in vivo; conditions: GPR84KO mice; 1000 mg/kg oral; 120 minutes after administration; mean±standard error
Protocol: An administration test was carried out by the following method to examine an effect of administration of various medium chain fatty acids (capric acid or lauric acid, both are a free form) to mice on plasma GLP-1 secretion. The above medium chain fatty acids correspond to GPR84 agonists. A control sample (carboxymethylcellulose), a capric acid sample, and a lauric acid sample were prepared in the same manner as in the <Test 2> above. Based on the following method, any one of a control sample, a capric acid sample, and a lauric acid sample was administered to mice in each group. In this test, two types of mice, that is, wild-type mice and GPR84 knockout mice, were prepared. As wild-type mice, 18 C57BL/6 male mice at 7- to 9-weeks old (purchased from Japan SLC, Inc.) were used. […] Plasma was prepared by a conventional method from the blood obtained before and after sample administration, and the plasma GLP-1 concentration (pM) was measured. The plasma GLP-1 concentration was measured by ELISA using a commercially available kit (trade name “Glucagon Like Peptide-1 (Active) ELIS”, manufactured by Sigma-Aldrich). The data in FIG. 3 and Table 3 are expressed as relative values (Relative GLP-1) when the average value of plasma GLP-1 concentration before administration of each sample is set to “1”, and expressed as “mean±standard error of the relative values”. […]

wild-type mice = assay: Administration test: plasma GLP-1 concentration in wild-type mice (ELISA); type: in vivo; conditions: WT mice, 1000 mg/kg oral; for Relative GLP-1 (plasma GLP-1 concentration relative to before administration = 1): 120 minutes after administration, mean±standard error
Protocol: An administration test was carried out by the following method to examine an effect of administration of various medium chain fatty acids (capric acid or lauric acid, both are a free form) to mice on plasma GLP-1 secretion. The above medium chain fatty acids correspond to GPR84 agonists. A control sample (carboxymethylcellulose), a capric acid sample, and a lauric acid sample were prepared in the same manner as in the <Test 2> above. Based on the following method, any one of a control sample, a capric acid sample, and a lauric acid sample was administered to mice in each group. In this test, two types of mice, that is, wild-type mice and GPR84 knockout mice, were prepared. As wild-type mice, 18 C57BL/6 male mice at 7- to 9-weeks old (purchased from Japan SLC, Inc.) were used. As the GPR84 knockout mice, 12 mice were prepared using C57BL/6 according to the method by Wang et al. (Pharmacological Research Volume 164, February 2021, 105406). Furthermore, the age in weeks of the GPR84 knockout mice was the same as that of the wild-type mice. Each mouse was acclimatized for one week, and then divided into six groups (a control sample-administered group, a capric acid sample-administered group, and a lauric acid sample administration group for each of the wild-type mice and the GPR84 knockout mice) so that average value of the body weight is uniform in each group. Note here that the mice were reared in plastic cages under an environment of temperature of 24±1° C., humidity of 50±10%, and a 12-hour light-dark cycle (lighting from 8:00 to 20:00). Water and solid feed (trade name “CLEA Rodent Diet CE-2 for mice, rats and hamsters”, manufactured by CLEA Japan Co., Ltd.) were fed ad libitum. However, the day before the glucose tolerance test, fasting was started from 17:00, and on the day of the test, the administration was started from 10:00. Each sample (any one of a control sample, a capric acid sample, and a lauric acid sample) was administered to each group of mice after blood was collected from the tail vein. […] Plasma was prepared by a conventional method from the blood obtained before and after sample administration, and the plasma GLP-1 concentration (pM) was measured. The plasma GLP-1 concentration was measured by ELISA using a commercially available kit (trade name “Glucagon Like Peptide-1 (Active) ELIS”, manufactured by Sigma-Aldrich). The data in FIG. 3 and Table 3 are expressed as relative values (Relative GLP-1) when the average value of plasma GLP-1 concentration before administration of each sample is set to “1”, and expressed as “mean±standard error of the relative values”. Dunnet's test was used to test significant differences between trials, and significant differences were determined to exist when the risk rate was less than 5% (*p<0.05). […]

Compound	GLP-1 CONCENTRATION (STC-1 cells; 0.01 mM in medium)	GLP-1 CONCENTRATION (STC-1 cells; 0.1 mM in medium)	GLP-1 CONCENTRATION (STC-1 cells; 1.0 mM in medium)	Effect on GLP-1 secretion from STC-1 cells (in words) (STC-1 cells)	Relative GLP-1 (plasma GLP-1 concentration relative to before administration = 1) (GPR84 knockout mice)	Effect on plasma GLP-1 concentration (in words) (wild-type mice)	Relative GLP-1 (plasma GLP-1 concentration relative to before administration = 1) (wild-type mice)
CCCCCCCCCC(=O)O [Capric acid, capric acid (n-decanoic acid)]	1.235 ± 0.120 nM	1.517 ± 0.005 nM	4.629 ± 0.087 * nM	promoted GLP-1 secretion	0.63 ± 0.2	significantly increased the plasma GLP-1 concentration	1.65 ± 0.29 *
CCCCCCCCCCCC(=O)O [Lauric acid, lauric acid]	1.827 ± 0.060 * nM	3.915 ± 0.197 * nM	4.268 ± 0.084 * nM	promoted GLP-1 secretion	0.68 ± 0.19	significantly increased the plasma GLP-1 concentration	3.02 ± 0.67 *
